Data: US12427346B2, “P62 ligand compound, and composition for preventing, ameliorating or treating proteinopathies comprising the same” (AUTOTAC INC., priority 2018, dated 2025)
Counter-ions that a name gives are not always drawn.

Tests used:
[1] = test system: LC3; assay: Autophagy activity of control compounds by immunoblotting (Experimental Example 4); type: cell-based, human; conditions: different concentrations and different times; immunoblot, FIG. 5
Description: In order to investigate the autophagy activity efficacy of control compounds, immunoblotting was performed in the same manner as in Experimental Example 2 by using LC3 as a marker. As the control compounds, compounds having the following structure were used.

[2] = molecular target: T1, p62 protein (Homo sapiens, UniProt Q13501); assay: Oligomerization activity of p62 protein by immunoblotting (Experimental Example 1); type: cell-based; conditions: HEK293 cell lysate treated with test compounds at room temperature for 2 hours; immunoblot, FIG. 2
T1 construct: endogenous in cells; host or cells: HEK293 (lysate treated with compounds)
Description: In order to evaluate the p62 protein oligomerization activity efficacy by the compounds (Examples 1-25), HEK293 cell line, which is human embryonic kidney-derived cell, was collected. As the representative compounds among the present compounds, the compounds of Examples 1, 2, 3, 5, 6, 7, 8, 9, 12, and 13 (Example 10 (YT-5-1), Example 11 (YT-5-2), Example 12 (YT 5-7), Example 13 (YT 5-8), Example 15 (YT-8-7), Example 16 (YT-8-8), Example 17 (YTK-107), Example 18 ([…]), Example 20 (ATB10041), Example 21 (ATB10042), Example 22 (ATB10043), Example 23 (ATB10044), Example 24 (ATB10045) and Example 25 (ATB10046)) were selected. In order to measure intracellular p62 protein activation and oligomerization according to the treatment with these selected representative compounds, the respective cells were dispensed into a 100 pi dish. The cells were collected after further culturing for 24 hours so that the cells were completely attached to the surface of the plate. 100 ul of lysis buffer (20 mM Tris, pH 7.4), 150 mM NaCl, 1% Triton X-100, 2 mM NaF, 2 mM EDTA, 2 mM beta-glycerophosphate, 5 mM sodium orthovanadate, 1 mM PMSF, leupeptin, aprotinin) were injected into each sample and the cells were lysed. Based on the measured total protein concentration, each sample was treated with test compounds at room temperature for 2 hours, and then a sample buffer was added and allowed to react at 95° C. for 10 minutes. 25 ul was taken from the samples after the reaction, and dispensed into each well of acrylamide gel, and then immunoblotting was performed.

[3] = test system: LC3; assay: Autophagy activity in cultured cells by immunoblotting, treatment time (Experimental Example 3); type: cell-based, human; conditions: HeLa cells; 5 μM for 1, 3, 6, 12, 24, 48 hours or 10 μM for 24 hours; immunoblot, FIG. 4
Description: In order to investigate the autophagy activity efficacy by the compounds (Examples 1-25), immunoblotting was performed in the same manner as in Experimental Example 2 using LC3 as a marker. As for the difference, in order to evaluate the treatment time required for activation and the activity retention time, 5 μM of the representative compounds selected among the present compounds (Example 5 (YTK-1005), Example 6 (YTK-1205), Example 7 (YTK-1305), Example 2 (YTK-2205), Example 3 (YTK-3305), Example 14 (YTK-1108), Example 8 (YTK-105), Example 9 (YTK-205)) were treated for 1, 3, 6, 12, 24, 48 hours. On the other hand, 10 μM of the representative compounds selected among the present compounds (Example 10 (YT 5-1), Example 11 (YT 5-2), Example 16 (YT 8-8), Example 15 (YT 8-7), Example 17 (YTK-107), Example 18 (YTK-207), Example 20 (ATB10041), Example 21 (ATB10042), Example 22 (ATB10043), Example 23 (ATB10044), Example 24 (ATB10045), Example 25 (ATB10046)) were treated for 24 hours.

T1 sequence (Q13501 whole entry): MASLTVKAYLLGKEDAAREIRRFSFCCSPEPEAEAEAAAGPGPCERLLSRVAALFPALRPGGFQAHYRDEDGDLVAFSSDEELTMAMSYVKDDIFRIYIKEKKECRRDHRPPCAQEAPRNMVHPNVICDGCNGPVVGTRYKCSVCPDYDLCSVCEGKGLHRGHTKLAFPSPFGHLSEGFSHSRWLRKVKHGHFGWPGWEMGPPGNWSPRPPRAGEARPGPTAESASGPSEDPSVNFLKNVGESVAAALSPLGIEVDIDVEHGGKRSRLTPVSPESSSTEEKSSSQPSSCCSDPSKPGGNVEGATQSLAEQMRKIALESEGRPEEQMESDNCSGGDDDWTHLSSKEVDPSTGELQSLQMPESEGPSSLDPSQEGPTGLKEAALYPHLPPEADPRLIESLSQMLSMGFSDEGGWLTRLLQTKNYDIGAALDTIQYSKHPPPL

SMILES | autophagy activity (level of LC3) of control compounds [1] | p62 protein oligomerization activity (monomer, oligomers and high-molecular aggregates) [2] | autophagy activity (level of LC3) [3]
O=Cc1ccc(OCc2ccccc2)c(OCc2ccccc2)c1 [Example 1101, 3,4-bis(benzyloxy)benzaldehyde] | do not increase autophagy activity |  | 
O=Cc1ccc(OCc2ccccc2)c(OCCCCc2ccccc2)c1 [Example 1401, 4-(benzyloxy)-3-(4-phenylbutoxy)benzaldehyde] | do not increase autophagy activity |  | 
c1ccc(COc2ccc(OC[C@H]3CO3)cc2OCc2ccccc2)cc1 [Example 1103, (R)-2-((3,4-bis(benzyloxy)phenoxy)methyl)oxirane] | do not increase autophagy activity |  | 
Oc1ccc(OCc2ccccc2)c(OCCc2ccccc2)c1 [Example 1202, 4-(benzyloxy)-3-phenethoxyphenol] | do not increase autophagy activity |  | 
N[C@H](CNCc1ccc(OCc2ccccc2)c(OCc2ccccc2)c1)C(=O)O [ATB10043, (R)-2-amino-3-((3,4-bis(benzyloxy)benzyl)amino)propanoic acid] |  | increasing the p62 protein oligomerization activity | increasing the autophagy activity
O=Cc1ccc(OCc2ccccc2)c(OCCCc2ccccc2)c1 [Example 1301, 4-(benzyloxy)-3-(3-phenylpropoxy)benzaldehyde] | do not increase autophagy activity |  | 
Oc1ccc(OCc2ccccc2)c(OCCCc2ccccc2)c1 [Example 1302, 4-(benzyloxy)-3-(3-phenylpropoxy)phenol] | do not increase autophagy activity |  | 
O=Cc1ccc(OCc2ccccc2)c(OCCc2ccccc2)c1 [Example 1201, 4-(benzyloxy)-3-phenethoxybenzaldehyde] | do not increase autophagy activity |  | 
OCCNCc1ccc(OCc2ccccc2)c(OCCc2ccccc2)c1 [YTK-HCl-1205, 2-((4-(benzyloxy)-3-phenethoxybenzyl)amino)ethan-1-ol] |  |  | increasing the autophagy activity
OCCNCc1ccc(OCCCc2ccccc2)c(OCCCc2ccccc2)c1 [YTK-HCl-3305, 2-((3,4-bis(3-phenylpropoxy)benzyl)amino)ethan-1-ol] |  |  | increasing the autophagy activity
O=Cc1ccc(OCCc2ccccc2)c(OCCc2ccccc2)c1 [Example 2201, 3,4-diphenethoxybenzaldehyde] | do not increase autophagy activity |  | 
Oc1ccc(OCCCCc2ccccc2)c(OCCCCc2ccccc2)c1 [Example 4402, 3,4-bis(4-phenylbutoxy)phenol] | do not increase autophagy activity |  | 
OCCNCCNCc1ccc(OCc2ccccc2)c(OCc2ccccc2)c1 [YTK-HCl-1108, 2-((2-((3,4-bis(benzyloxy)benzyl)amino)ethyl)amino)ethan-1-ol] |  |  | increasing the autophagy activity
Oc1ccc(OCCc2ccccc2)c(OCCc2ccccc2)c1 [Example 2202, 3,4-diphenethoxyphenol] | do not increase autophagy activity |  | 
NC(=O)CNCc1ccc(OCc2ccccc2)c(OCc2ccccc2)c1 [ATB10044, 2-((3,4-bis(benzyloxy)benzyl)amino)acetamide] |  | increasing the p62 protein oligomerization activity | increasing the autophagy activity
Oc1ccc(OCc2ccccc2)c(OCCCCc2ccccc2)c1 [Example 1402, 4-(benzyloxy)-3-(4-phenylbutoxy)phenol] | do not increase autophagy activity |  | 
Oc1ccc(OCc2ccccc2)c(OCc2ccccc2)c1 [Example 1102, 3,4-bis(benzyloxy)phenol] | do not increase autophagy activity |  | 
OCCCCc1ccc(OCc2ccccc2)c(OCc2ccccc2)c1 [YTK-1105-1, 4-(3,4-bis(benzyloxy)phenyl)butan-1-ol] | do not increase autophagy activity |  | 
OCCNCc1ccc(OCc2ccccc2)c(OCCCc2ccccc2)c1 [YTK-HCl-1305, 2-((4-(benzyloxy)-3-(3-phenylpropoxy)benzyl)amino)ethan-1-ol] |  |  | increasing the autophagy activity
O=C(CO)NCc1ccc(OCc2ccccc2)c(OCc2ccccc2)c1 [ATB10042, N-(3,4-bis(benzyloxy)benzyl)-2-hydroxyacetamide] |  | increasing the p62 protein oligomerization activity | increasing the autophagy activity
COc1cc(CNCCO)cc(OCc2ccccc2)c1OCc1ccccc1 [ATB10045, 2-((3,4-bis(benzyloxy)-5-methoxybenzyl)amino)ethan-1-ol] |  | increasing the p62 protein oligomerization activity | increasing the autophagy activity
OCCNCc1cc(Cl)c(OCc2ccccc2)c(OCc2ccccc2)c1 [ATB10046, 2-((3,4-bis(benzyloxy)-5-chlorobenzyl)amino)ethan-1-ol] |  | increasing the p62 protein oligomerization activity | increasing the autophagy activity
c1ccc(CCOc2cc(OC[C@H]3CO3)ccc2OCc2ccccc2)cc1 [Example 1203, (R)-2-((4-(benzyloxy)-3-phenethoxyphenoxy)methyl)oxirane] | do not increase autophagy activity |  | 
OCCNCc1ccc(OCCc2ccccc2)c(OCCc2ccccc2)c1 [YTK-HCl-2205, 2-((3,4-diphenethoxybenzyl)amino)ethan-1-ol] |  |  | increasing the autophagy activity
O=C(NCCO)NCc1ccc(OCc2ccccc2)c(OCc2ccccc2)c1 [ATB10041, 1-(3,4-bis(benzyloxy)benzyl)-3-(2-hydroxyethyl)urea] |  | increasing the p62 protein oligomerization activity | increasing the autophagy activity
